# Laboratory results as given in US10028956B2, “Methods of treating various cancers using an AXL/cMET inhibitor in combination with other agents” (Ignyta, Inc., priority 2013, dated 2018).
# Tested on: EBC-1 Human NSCLC xenografts
# Assay: Anti-tumor efficacy in EBC-1 NSCLC xenografts
# Type: in vivo, mice
# From the text: The human NSCL cancer cell line, EBC-1 was purchased from ATCC (American Tissue Culture Collection, Manassas, Va.) and cultured in DMEM medium with 10% fetal bovine serum (FBS, Cat# SH3007003, Hyclone Laboratory Inc, Logan, Utah). Female Nu/Nu mice (6-8 weeks, Charles River Laboratory, Wilmington, Mass.) were maintained 5/cage in microisolator units on a standard laboratory diet (Teklad Labchow, Harlan Teklad, Madison, Wis.). Animals were housed under humidity- and temperature-controlled conditions and the light/dark cycle was set at 12-hour intervals. Mice were quarantined at least 1 week prior to experimental manipulation. […] The mice were then monitored daily. […] The length (L) and width (W) of each tumor was measured with a vernier caliper and the mouse body weight was determined every 2-3 days. The tumor volumes were then calculated with the formula of 0.5236*L*W*(L+W)/2. […] Plasma and tumor samples were obtained at 2 hours post final dose at each dose level, and the compound levels in plasma and tumor lysates were measured by LC-MS/MS. The TGI values were calculated at the end of study by comparing the tumor volumes (TV) of each CEP-40783-treatment group with those of vehicle-treated group with the following formula: 1-(the last day TV of compound-treated group/the last day TV of vehicle-treated group).
structure (smiles),measurement,setting,value
"COc1cc2nccc(Oc3ccc(NC(=O)c4cn(C(C)C)c(=O)n(-c5ccc(F)cc5)c4=O)cc3F)c2cc1OC [CEP-40783, 3-(4-Fluorophenyl)-1-isopropyl-2,4-dioxo-1,2,3,4-tetrahydropyrimidine-5-carboxylic acid [4-(6,7-dimethoxyquinolin-4-yloxy)-3-fluorophenyl]-amide]",anti-tumor efficacy (tumor volume),3 mg/kg oral qd,tumor stasis and partial regressions
same,anti-tumor efficacy (tumor volume),10 mg/kg and 30 mg/kg oral qd,tumor regressions
